Here are results for eight compounds from patent US11679107B2 (Eisai R&D Management Co., Ltd., priority 2018, dated 2023).

One test concerns the target T1, SF3b complexes (Homo sapiens, UniProt O75533+Q7RTV0).
T1 construct: endogenous in cells; host or cells: Nuclear extracts; A HeLa S3 extract preparation is described for the in vitro splicing assay
The experiment in a line: Scintillation proximity assay (SPA) with [3H]-labelled pladienolide probe. The class given is binding. The note with it: SF3B1 (WT); geometric mean; read-out: SPA-ATS GMean IC50 (nM) SF3B1 (WT). In short, it runs like this:
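SF3b complexes captured from nuclear extracts on anti-SF3B1 antibody SPA beads; test compounds pre-incubated 30 min before 2.5 nM [3H]-pladienolide probe added, then 30 min incubation. Bound probe read by scintillation; values from non-linear regression of concentration–response curves.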
(In general: In a scintillation proximity assay essentially only radioactivity close to the scintillant gives light.)

Test [1] deals with Ad2 variant pre-mRNAs spliced in HeLa S3 nuclear extracts. Briefly: In vitro splicing assay (IVS), RT-qPCR of spliced product. The note with it: geometric mean. The test is classed as biochemical. In a few lines: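 Read-out is one-step TaqMan RT-qPCR of spliced Ad2 mRNA with Ftz as reference, normalized to DMSO and fit by non-linear regression. Reactions held HeLa S3 nuclear extract, 2 ng Ad2-derived pre-mRNA and test compound, with 15 min preincubation. Splicing was started with ATP-containing activation buffer and run 90 min at 30 °C.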

Test [2] has as its system NCI-H1568 cells (high MCL1). The experiment in a line: Cell proliferation and viability, CellTiter-Glo, 72 hours. The class given is cell-based. Particulars: for GI50: geometric mean; for CTGlo-ATS Mean MinResponse % 72 h NCIH1568.1: −100% cidal, 0% static, 100% maximal growth. In a few lines:
(§1)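 ATP luminescence (CellTiter-Glo) was measured 72 h after treatment with compound at 10 μM–100 pM (11 points, half-log) in 0.1% DMSO. The Panc line was grown in RPMI-1640 plus insulin and 15% FBS, the other in 10% FBS. Data were normalised to time zero and vehicle controls, where −100% is cidal and 0% static.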
In general terms: ATP-based viability assays read luminescence as a measure of living cells.

Test [3] concerns Panc 05.04 cells (SF3b K700E mutant). Described as above. The test is classed as cell-based. The note with it: for CTGlo-ATS Mean MinResponse % 72 h PANC0504.1: −100% cidal, 0% static, 100% maximal growth; for GI50: geometric mean. In a few lines:
as §1

The mark [4] stands for this setting: Ad2.1 pre-mRNA substrate, read-out: qPCR-IVS-ATS GMean IC50 (nM) Ad2.1.
Setting [5] is: Ad2.2 pre-mRNA substrate, read-out: qPCR-IVS-ATS GMean IC50 (nM) Ad2.2.
The mark [6] stands for this setting: NCI-H1568, read-out: CTGlo-ATS GMean GI50 (nM) 72 h NCIH1568.1, NCIH1568.1 cells, 72 h.
The mark [7] stands for this setting: Panc 05.04, read-out: CTGlo-ATS GMean GI50 (nM) 72 h PANC0504.1, PANC0504.1 cells, 72 h.
The mark [8] stands for this setting: NCI-H1568, 72 h, read-out: CTGlo-ATS GMean GI50 (nM) 72 h NCIH1568.1, NCIH1568.1 cells, 72 h.
Where [9] appears, read: Panc 05.04, 72 h, read-out: CTGlo-ATS GMean GI50 (nM) 72 h PANC0504.1, PANC0504.1 cells, 72 h.

Structures are written as SMILES. Read-outs that look alike come from different tables or passages of the source. Bounds are passed on as bounds.

As to `C/C(=C\c1cc(F)cc(N2CCOCC2)c1)[C@H]1OC(=O)C[C@H](O)CC[C@H](C)[C@@H](OC(=O)N2CCN(C)[C@H](C)C2)/C=C/[C@@H]1C` [Compound 23], the IC50 at SF3b complexes came to 4.23 nM; in test [1] (setting [4]), 369 nM; in test [1] (setting [5]), 28.3 nM. Further, the concentration for 50% growth inhibition (GI50) in test [2] (setting [6]) was 10.8 nM; in test [3] (setting [7]) it was 10.4 nM. Besides, the “CTGlo-ATS Mean MinResponse % 72 h NCIH1568.1” value in test [2] (NCIH1568.1 cells, 72 h) is on record as −64.974%. Further, the “CTGlo-ATS Mean MinResponse % 72 h PANC0504.1” value in test [3] (PANC0504.1 cells, 72 h) is recorded as −90.781%.
In the case of `C/C(=C\c1cc(F)cc(N2CCOCC2)c1)[C@H]1OC(=O)C[C@H](O)CC[C@H](C)[C@@H](OC(=O)N2CCN(C(C)C)CC2)/C=C/[C@@H]1C` [Compound 24], the IC50 turned out to be 5.19 nM at SF3b complexes, 192 nM in test [1] (setting [4]) and 30.7 nM in test [1] (setting [5]). Also, the 50% growth inhibitory concentration (GI50) in test [2] (setting [6]) is 10.9 nM; in test [3] (setting [7]), 8.29 nM. Besides, the “CTGlo-ATS Mean MinResponse % 72 h NCIH1568.1” value in test [2] (NCIH1568.1 cells, 72 h) is on record as −67.459%. In addition, the “CTGlo-ATS Mean MinResponse % 72 h PANC0504.1” value in test [3] (PANC0504.1 cells, 72 h) is on record as −89.895%.
For `C/C(=C\c1cc(F)cc(N2CCOCC2)c1)[C@H]1OC(=O)C[C@H](O)CC[C@H](C)[C@@H](OC(=O)N2CCN(C(C)(C)C)CC2)/C=C/[C@@H]1C` [Compound 25], the IC50 stood at 4.94 nM at SF3b complexes, 430 nM in test [1] (setting [4]) and 46.4 nM in test [1] (setting [5]). Further, the GI50 in test [2] (setting [6]) was 20.6 nM; in test [3] (setting [7]), 20.5 nM. The “CTGlo-ATS Mean MinResponse % 72 h NCIH1568.1” value in test [2] (NCIH1568.1 cells, 72 h) is given as −49.158%. Besides, the “CTGlo-ATS Mean MinResponse % 72 h PANC0504.1” value in test [3] (PANC0504.1 cells, 72 h) is −88.378%.
For the compound `C/C(=C\c1cc(F)cc(N2CCOCC2)c1)[C@H]1OC(=O)C[C@H](O)CC[C@H](C)[C@@H](OC(=O)N2CCN(C3CCC3)CC2)/C=C/[C@@H]1C` [Compound 26], the IC50 was found to be 11.4 nM on SF3b complexes, 107 nM in test [1] (setting [4]) and 43.5 nM in test [1] (setting [5]). Besides, the values for the 50% growth inhibitory concentration (GI50) in test [2] (setting [8]) and in test [3] (setting [9]) were 26.5 nM and 19 nM, respectively. Moreover, the “CTGlo-ATS Mean MinResponse % 72 h NCIH1568.1” value in test [2] (NCIH1568.1 cells, 72 h) is −68.566%. For the same compound, the “CTGlo-ATS Mean MinResponse % 72 h PANC0504.1” value in test [3] (PANC0504.1 cells, 72 h) is recorded as −88.278%.
As for `C/C(=C\c1cc(F)cc(N2CCOCC2)c1)[C@H]1OC(=O)C[C@H](O)CC[C@H](C)[C@@H](OC(=O)N2CCN(C3CCCC3)CC2)/C=C/[C@@H]1C` [Compound 27], the values for the IC50 (on SF3b complexes; in test [1] (setting [4]); in test [1] (setting [5])) were 10.5 nM, 39.9 nM and 42.3 nM, respectively. The results for the GI50 in test [2] (setting [6]) and in test [3] (setting [7]) were 12.3 nM and 11.9 nM, respectively. For the same compound, the “CTGlo-ATS Mean MinResponse % 72 h NCIH1568.1” value in test [2] (NCIH1568.1 cells, 72 h) was −71.773%. In test [3] (PANC0504.1 cells, 72 h), the “CTGlo-ATS Mean MinResponse % 72 h PANC0504.1” value is −84.822%.
`C/C(=C\c1cc(F)cc(F)c1)[C@H]1OC(=O)C[C@H](O)CC[C@H](C)[C@@H](OC(=O)N2CCN(C)CC2)/C=C/[C@@H]1C` [Compound 28]: the figures for the IC50 (on SF3b complexes; in test [1] (setting [4]); in test [1] (setting [5])) were 10.1 nM, 8.55 nM and 61.5 nM, respectively. Moreover, the concentration for 50% growth inhibition (GI50) in test [2] (setting [8]) was 89.6 nM; in test [3] (setting [9]) it was 42.9 nM. The “CTGlo-ATS Mean MinResponse % 72 h NCIH1568.1” value in test [2] (NCIH1568.1 cells, 72 h) is −39.539%. For the same compound, the “CTGlo-ATS Mean MinResponse % 72 h PANC0504.1” value in test [3] (PANC0504.1 cells, 72 h) is given as −41.132%.
On to `C/C(=C\c1cc(F)cc(N(C)C)c1)[C@H]1OC(=O)C[C@H](O)CC[C@H](C)[C@@H](OC(=O)N2CCN(C)CC2)/C=C/[C@@H]1C` [Compound 29], for which the IC50 at SF3b complexes is 5.6 nM; in test [1] (setting [4]), greater than 25000 nM; in test [1] (setting [5]), 90.7 nM. Besides, the 50% growth inhibitory concentration (GI50) worked out at 53.8 nM in test [2] (setting [6]) and 34.7 nM in test [3] (setting [7]). In addition, the “CTGlo-ATS Mean MinResponse % 72 h NCIH1568.1” value in test [2] (NCIH1568.1 cells, 72 h) is −19.404%. The “CTGlo-ATS Mean MinResponse % 72 h PANC0504.1” value in test [3] (PANC0504.1 cells, 72 h) is on record as −90.429%.
In the case of `C/C(=C\c1cc(F)cc(N(C)C2CCN(C)CC2)c1)[C@H]1OC(=O)C[C@H](O)CC[C@H](C)[C@@H](OC(=O)N2CCN(C)CC2)/C=C/[C@@H]1C` [Compound 31], the IC50 on SF3b complexes came out at 43.2 nM; in test [1] (setting [4]), 50.1 nM; in test [1] (setting [5]) it was 14.6 nM. For the same compound, the GI50 came out at 89.4 nM in test [2] (setting [6]) and 53 nM in test [3] (setting [7]). Moreover, the “CTGlo-ATS Mean MinResponse % 72 h NCIH1568.1” value in test [2] (NCIH1568.1 cells, 72 h) is given as −98.108%. In addition, the “CTGlo-ATS Mean MinResponse % 72 h PANC0504.1” value in test [3] (PANC0504.1 cells, 72 h) is −90.716%.

Usually IC50 stands for the concentration at which inhibition is half-maximal. The GI50 is the concentration at which growth is held to half of that of the control.
